Measurements published in US12534457B2, “Heteroaryl derivative compounds, and uses thereof” (Voronoi Inc., priority 2021, dated 2026).

Experiments:
[1] = test system: Ba/F3 cells expressing EGFR Del19/C797S (EGFR DC); assay: Proliferation inhibitory activity, Ba/F3 cells expressing EGFR Del19/C797S (CellTiter-Glo); format: cell-based; settings: Mus musculus, BaF3, 72 hours of compound treatment
Method in brief: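 Viability after 72 h of compound exposure was measured by luminescence (CellTiter-Glo) in Ba/F3 lines transduced with mutant EGFR. Final concentrations spanned 0.2 nM–5 μM over 12 threefold steps. Growth relative to untreated control gave GI50 values; each test was run three times.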

[2] = test system: Ba/F3 cells expressing EGFR L858R/C797S (EGFR LC); assay: Proliferation inhibitory activity, Ba/F3 cells expressing EGFR L858R/C797S (CellTiter-Glo); format: cell-based; settings: Mus musculus, BaF3, 72 hours of compound treatment
Protocol: (§1) The following experiments were performed to evaluate the inhibitory activity of the compounds according to the present disclosure on Ba/F3 proliferation expressing EGFR C797S, L861Q, G719A, S768I, L718Q, and/or G724S mutations.
(§2) For Ba/F3 cells, RPMI-1640 containing 10% FBS and 5 ng/ml IL-3 (R&D Systems) was used. Transduced Ba/F3 cells were cultured after adding 1 μg/ml puromycin (Invitrogen) to the same medium.
(§3) At 24 hours before treatment with the compounds, 3000 to 5000 cells were aliquoted into each well of a white clear bottom 96 well plate (Corning). The compounds were diluted in dimethyl sulfoxide (3 times dilution, 12 concentrations in total), and injected in an amount of 1 μl so that the final concentration was 0.2 nM to 5 uM. For measurement of living cells, after 72 hours of compound treatment, the cells were stored at room temperature for 10 min using CellTiter-Glo luminescentcell-viability reagent (Promega), and then luminescence intensity was measured using a reader (SynergyNeo, Biotek). Each test was repeated three times. Result values were calculated as the cell growth rate (%) compared to the control. The graphs were created using GraphPad Prism version 8.3.0 program and the GI50 values were calculated.

[3] = test system: Ba/F3 G719A (EGFR mutation); assay: Proliferation inhibitory activity, Ba/F3 cells expressing EGFR G719A; format: cell-based; settings: Mus musculus, BaF3, 72 hours, CellTiter-Glo
Protocol: as §1, §2, §3

[4] = test system: Ba/F3 L861Q (EGFR mutation); assay: Proliferation inhibitory activity, Ba/F3 cells expressing EGFR L861Q; format: cell-based; settings: Mus musculus, BaF3, 72 hours, CellTiter-Glo
Protocol: as §1, §2, §3

[5] = test system: Ba/F3 S768I (EGFR mutation); assay: Proliferation inhibitory activity, Ba/F3 cells expressing EGFR S768I; format: cell-based; settings: Mus musculus, BaF3, 72 hours, CellTiter-Glo
Protocol: as §1, §2, §3

[6] = test system: Ba/F3 L718Q (EGFR mutation); assay: Proliferation inhibitory activity, Ba/F3 cells expressing EGFR L718Q; format: cell-based; settings: Mus musculus, BaF3, 72 hours, CellTiter-Glo
Protocol: as §1, §2, §3

[7] = test system: Ba/F3 G724S (EGFR mutation); assay: Proliferation inhibitory activity, Ba/F3 cells expressing EGFR G724S; format: cell-based; settings: Mus musculus, BaF3, 72 hours, CellTiter-Glo
Protocol: as §1, §2, §3

EGFR (d746-750) = target: T1, EGFR (d746-750) (Homo sapiens, UniProt P00533, DEL746-750); assay: EGFR-family mutant enzyme activity (Reaction Biology); format: biochemical
T1 construct: purchased Reaction Biology

EGFR (d746-750/C797A) = target: T2, EGFR (d746-750/C797A) (Homo sapiens, UniProt P00533, C797A/DEL746-750); assay: as above; format: biochemical
T2 construct: purchased Reaction Biology

EGFR (d746-750/C797S) = target: T3, EGFR (d746-750/C797S) (Homo sapiens, UniProt P00533, C797S/DEL746-750); assay: as above; format: biochemical
T3 construct: purchased Reaction Biology
T3 sequence (P00533 with tags, fused parts or gaps DEL746-750/C797S limits assumed): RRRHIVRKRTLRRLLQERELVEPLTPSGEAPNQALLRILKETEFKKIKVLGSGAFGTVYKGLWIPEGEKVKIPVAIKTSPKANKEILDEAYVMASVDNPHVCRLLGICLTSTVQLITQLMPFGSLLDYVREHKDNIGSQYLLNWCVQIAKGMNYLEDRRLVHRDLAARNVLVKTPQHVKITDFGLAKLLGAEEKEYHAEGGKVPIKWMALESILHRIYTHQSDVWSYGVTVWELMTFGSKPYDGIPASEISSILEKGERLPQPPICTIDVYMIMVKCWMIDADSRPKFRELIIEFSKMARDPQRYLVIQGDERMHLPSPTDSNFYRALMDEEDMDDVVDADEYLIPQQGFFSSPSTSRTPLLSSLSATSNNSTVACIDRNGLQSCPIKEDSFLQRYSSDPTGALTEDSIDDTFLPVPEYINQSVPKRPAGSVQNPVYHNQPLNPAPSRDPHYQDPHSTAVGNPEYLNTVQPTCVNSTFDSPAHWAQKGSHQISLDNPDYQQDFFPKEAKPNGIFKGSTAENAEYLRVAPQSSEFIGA

[8] = target: T4, EGFR (d746-750/T790M/C797S) (Homo sapiens, UniProt P00533, C797S/DEL746-750/T790M); assay: as above; format: biochemical
T4 construct: purchased Reaction Biology
T4 sequence (P00533 with tags, fused parts or gaps DEL746-750/T790M/C797S limits assumed): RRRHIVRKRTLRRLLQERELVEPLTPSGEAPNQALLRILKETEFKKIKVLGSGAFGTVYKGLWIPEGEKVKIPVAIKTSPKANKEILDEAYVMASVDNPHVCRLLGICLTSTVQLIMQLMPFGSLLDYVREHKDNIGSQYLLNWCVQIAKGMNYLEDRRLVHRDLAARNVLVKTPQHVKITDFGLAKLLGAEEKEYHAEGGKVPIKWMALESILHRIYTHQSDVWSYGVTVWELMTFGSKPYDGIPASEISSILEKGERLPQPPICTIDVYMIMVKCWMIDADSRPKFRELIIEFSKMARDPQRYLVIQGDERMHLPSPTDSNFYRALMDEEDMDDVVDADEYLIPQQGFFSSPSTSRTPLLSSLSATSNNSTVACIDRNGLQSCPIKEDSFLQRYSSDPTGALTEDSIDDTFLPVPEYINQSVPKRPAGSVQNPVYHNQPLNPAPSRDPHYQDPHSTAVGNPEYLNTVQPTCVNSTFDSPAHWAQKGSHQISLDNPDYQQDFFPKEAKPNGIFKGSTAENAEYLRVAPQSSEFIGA

EGFR (D761Y) = target: T5, EGFR (D761Y) (Homo sapiens, UniProt P00533, D761Y); assay: as above; format: biochemical
T5 construct: purchased Reaction Biology

EGFR (G719C) = target: T6, EGFR (G719C) (Homo sapiens, UniProt P00533, G719C); assay: as above; format: biochemical
T6 construct: purchased Reaction Biology

EGFR (G719D) = target: T7, EGFR (G719D) (Homo sapiens, UniProt P00533, G719D); assay: as above; format: biochemical
T7 construct: purchased Reaction Biology
T7 sequence (P00533 25-1210 G719D): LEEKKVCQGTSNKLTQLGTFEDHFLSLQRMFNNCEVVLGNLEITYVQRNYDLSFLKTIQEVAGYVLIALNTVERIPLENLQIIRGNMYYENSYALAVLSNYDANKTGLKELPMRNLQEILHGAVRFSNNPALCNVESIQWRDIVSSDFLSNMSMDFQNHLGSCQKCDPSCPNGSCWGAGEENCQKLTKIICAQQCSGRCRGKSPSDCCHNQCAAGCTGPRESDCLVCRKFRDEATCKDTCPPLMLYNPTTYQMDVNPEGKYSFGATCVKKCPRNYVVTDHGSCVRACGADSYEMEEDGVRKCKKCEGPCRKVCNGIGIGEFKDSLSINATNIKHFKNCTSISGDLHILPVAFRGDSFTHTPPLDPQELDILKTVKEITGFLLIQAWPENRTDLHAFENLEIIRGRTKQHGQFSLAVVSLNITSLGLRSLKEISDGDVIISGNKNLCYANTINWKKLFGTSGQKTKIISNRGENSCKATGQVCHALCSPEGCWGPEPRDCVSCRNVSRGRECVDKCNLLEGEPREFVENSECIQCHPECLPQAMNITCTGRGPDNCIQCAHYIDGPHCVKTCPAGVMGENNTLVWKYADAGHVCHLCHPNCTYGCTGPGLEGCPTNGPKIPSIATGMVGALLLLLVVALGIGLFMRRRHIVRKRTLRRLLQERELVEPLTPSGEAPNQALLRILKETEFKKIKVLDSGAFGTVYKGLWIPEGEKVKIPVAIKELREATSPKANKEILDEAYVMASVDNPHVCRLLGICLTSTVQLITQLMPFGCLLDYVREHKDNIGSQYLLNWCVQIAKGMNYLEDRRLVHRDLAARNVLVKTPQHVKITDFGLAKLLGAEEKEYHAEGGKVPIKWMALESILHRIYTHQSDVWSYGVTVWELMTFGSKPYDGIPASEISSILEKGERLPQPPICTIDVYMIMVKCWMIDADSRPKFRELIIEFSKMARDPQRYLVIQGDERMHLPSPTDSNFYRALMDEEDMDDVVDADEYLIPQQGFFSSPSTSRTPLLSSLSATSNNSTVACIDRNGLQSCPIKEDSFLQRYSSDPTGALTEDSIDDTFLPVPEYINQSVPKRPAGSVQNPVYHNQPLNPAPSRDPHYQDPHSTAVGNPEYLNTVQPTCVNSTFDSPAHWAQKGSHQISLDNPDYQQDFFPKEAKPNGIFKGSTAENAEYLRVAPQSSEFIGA

EGFR (G719S) = target: T8, EGFR (G719S) (Homo sapiens, UniProt P00533, G719S); assay: as above; format: biochemical
T8 construct: purchased Reaction Biology

EGFR (L718Q) = target: T9, EGFR (L718Q) (Homo sapiens, UniProt P00533, L718Q); assay: as above; format: biochemical
T9 construct: purchased Reaction Biology

EGFR (L747S) = target: T10, EGFR (L747S) (Homo sapiens, UniProt P00533, L747S); assay: as above; format: biochemical
T10 construct: purchased Reaction Biology
T10 sequence (P00533 25-1210 L747S): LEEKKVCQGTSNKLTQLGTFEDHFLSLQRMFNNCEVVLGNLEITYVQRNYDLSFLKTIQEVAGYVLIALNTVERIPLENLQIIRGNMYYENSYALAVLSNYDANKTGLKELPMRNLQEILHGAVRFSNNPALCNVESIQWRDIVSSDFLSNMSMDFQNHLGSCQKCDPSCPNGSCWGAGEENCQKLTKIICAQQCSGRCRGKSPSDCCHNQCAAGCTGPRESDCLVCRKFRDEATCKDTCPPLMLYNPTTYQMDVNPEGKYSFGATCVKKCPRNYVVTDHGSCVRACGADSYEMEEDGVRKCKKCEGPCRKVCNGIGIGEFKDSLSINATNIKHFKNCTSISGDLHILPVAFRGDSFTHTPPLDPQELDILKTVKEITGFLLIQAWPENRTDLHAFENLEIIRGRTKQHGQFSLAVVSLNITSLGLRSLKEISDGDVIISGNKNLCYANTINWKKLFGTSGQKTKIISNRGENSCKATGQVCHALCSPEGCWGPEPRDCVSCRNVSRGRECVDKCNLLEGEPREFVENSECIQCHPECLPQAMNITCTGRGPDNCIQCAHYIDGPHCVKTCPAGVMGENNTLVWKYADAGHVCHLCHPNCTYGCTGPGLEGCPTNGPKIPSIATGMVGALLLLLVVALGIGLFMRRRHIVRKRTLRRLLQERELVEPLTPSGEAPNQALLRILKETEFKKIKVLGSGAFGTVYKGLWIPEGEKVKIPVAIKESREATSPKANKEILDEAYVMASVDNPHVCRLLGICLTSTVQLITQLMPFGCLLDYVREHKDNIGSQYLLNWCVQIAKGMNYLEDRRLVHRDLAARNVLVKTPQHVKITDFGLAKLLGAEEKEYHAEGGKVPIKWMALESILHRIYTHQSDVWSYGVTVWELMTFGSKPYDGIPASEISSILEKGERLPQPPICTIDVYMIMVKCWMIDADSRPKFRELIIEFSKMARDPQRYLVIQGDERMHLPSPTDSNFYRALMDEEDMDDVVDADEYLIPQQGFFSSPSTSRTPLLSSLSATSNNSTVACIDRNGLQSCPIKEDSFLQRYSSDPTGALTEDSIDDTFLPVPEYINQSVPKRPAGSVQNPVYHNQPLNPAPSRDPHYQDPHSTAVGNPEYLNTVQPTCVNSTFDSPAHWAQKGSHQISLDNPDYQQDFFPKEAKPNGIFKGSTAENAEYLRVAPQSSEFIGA

EGFR (L792F) = target: T11, EGFR (L792F) (Homo sapiens, UniProt P00533, L792F); assay: as above; format: biochemical
T11 construct: purchased Reaction Biology
T11 sequence (P00533 25-1210 L792F): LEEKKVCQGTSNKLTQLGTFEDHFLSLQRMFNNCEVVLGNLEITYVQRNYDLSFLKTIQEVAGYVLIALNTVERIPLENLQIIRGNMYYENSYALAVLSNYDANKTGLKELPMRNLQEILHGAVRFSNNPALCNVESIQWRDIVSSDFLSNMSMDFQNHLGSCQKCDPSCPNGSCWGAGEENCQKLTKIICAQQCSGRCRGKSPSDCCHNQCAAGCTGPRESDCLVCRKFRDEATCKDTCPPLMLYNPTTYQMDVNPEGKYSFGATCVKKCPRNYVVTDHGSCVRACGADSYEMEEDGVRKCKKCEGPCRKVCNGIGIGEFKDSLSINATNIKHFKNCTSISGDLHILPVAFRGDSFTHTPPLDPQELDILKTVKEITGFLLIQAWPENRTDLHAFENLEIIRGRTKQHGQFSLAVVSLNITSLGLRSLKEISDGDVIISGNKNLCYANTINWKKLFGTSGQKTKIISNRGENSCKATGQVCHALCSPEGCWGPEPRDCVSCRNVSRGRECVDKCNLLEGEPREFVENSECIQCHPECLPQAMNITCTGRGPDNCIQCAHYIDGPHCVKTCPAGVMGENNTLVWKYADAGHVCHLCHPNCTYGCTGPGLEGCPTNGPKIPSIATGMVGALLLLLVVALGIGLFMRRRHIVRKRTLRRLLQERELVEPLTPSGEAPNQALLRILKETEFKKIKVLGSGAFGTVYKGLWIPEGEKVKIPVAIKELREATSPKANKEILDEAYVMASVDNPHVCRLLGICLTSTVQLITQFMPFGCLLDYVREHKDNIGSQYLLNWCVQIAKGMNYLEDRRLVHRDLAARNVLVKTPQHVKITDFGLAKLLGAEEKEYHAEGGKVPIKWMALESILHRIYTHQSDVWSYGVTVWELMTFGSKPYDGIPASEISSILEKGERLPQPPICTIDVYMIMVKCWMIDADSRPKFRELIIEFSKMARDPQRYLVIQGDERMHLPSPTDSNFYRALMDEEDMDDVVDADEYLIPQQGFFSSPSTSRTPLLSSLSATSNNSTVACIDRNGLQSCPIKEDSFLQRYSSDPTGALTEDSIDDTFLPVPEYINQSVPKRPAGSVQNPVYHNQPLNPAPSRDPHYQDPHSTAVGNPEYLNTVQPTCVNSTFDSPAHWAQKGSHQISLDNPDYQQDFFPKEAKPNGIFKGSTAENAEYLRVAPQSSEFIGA

EGFR (L792F/L858R) = target: T12, EGFR (L792F/L858R) (Homo sapiens, UniProt P00533, L792F/L858R); assay: as above; format: biochemical
T12 construct: purchased Reaction Biology

EGFR (L861Q) = target: T13, EGFR (L861Q) (Homo sapiens, UniProt P00533, L861Q); assay: as above; format: biochemical
T13 construct: purchased Reaction Biology

ERBB2/HER2 = target: T14, ERBB2/HER2 (Homo sapiens, UniProt P04626); assay: as above; format: biochemical
T14 construct: purchased Reaction Biology

ERBB4/HER4 = target: T15, ERBB4/HER4 (Homo sapiens, UniProt Q15303); assay: as above; format: biochemical
T15 construct: purchased Reaction Biology

| GI50 [1] [nM] | GI50 [2] [nM] | GI50 [3] [nM] | GI50 [4] [nM] | GI50 [5] [nM] | Compound | further results |
| --- | --- | --- | --- | --- | --- | --- |
| 50 to 500 | 50 to 500 | – | – | – | COc1cc(N2CCC(N3CCN(C4CC4)CC3)CC2)ccc1Nc1cc(N2OCC[C@@H]2c2cc(F)cc(F)c2)ncn1 [Example 6, (R)—N-(4-(4-(4-cyclopropylpiperazin-1-yl)piperidin-1-yl)-2-methoxyphenyl)-6-(3-(3,5-difluorophenyl)isoxazolidin-2-yl)pyrimidin-4-amine] | – |
| < 50 | < 50 | – | – | – | COc1cc(Nc2cc(N3OCC[C@@H]3c3ccccc3)ncn2)ccc1N1CCN(C2CCN(C)CC2)CC1 [Example 102, (R)—N-(3-methoxy-4-(4-(1-methylpiperidin-4-yl)piperazin-1-yl)phenyl)-6-(3-phenylisoxazolidin-2-yl)pyrimidin-4-amine] | – |
| < 50 | < 50 | < 50 | < 50 | 50 to 500 | COc1cc(Nc2cc(N3OCC[C@@H]3c3ccccc3)ncn2)ccc1N1CCC(N2CCN(C)CC2)CC1 [Example 4, (R)—N-(3-methoxy-4-(4-(4-methylpiperazin-1-yl)piperidin-1-yl)phenyl)-6-(3-phenylisoxazolidin-2-yl)pyrimidin-4-amine] | – |
| 50 to 500 | 50 to 500 | – | – | – | CS(=O)(=O)c1cc(Nc2cc(N3OCC[C@@H]3c3cc(F)cc(F)c3)ncn2)cc(N2CCC(N3CCOCC3)CC2)c1 [Example 12, (R)-6-(3-(3,5-difluorophenyl)isoxazolidin-2-yl)-N-(3-(methylsulfonyl)-5-(4-morpholinopiperidin-1-yl)phenyl)pyrimidin-4-amine] | – |
| 50 to 500 | 50 to 500 | – | – | – | COc1cc(N2CCOCC2)c(-c2cnn(C)c2)cc1Nc1cc(N2OCC[C@@H]2c2cc(F)cc(F)c2)ncn1 [Example 7, (R)-6-(3-(3,5-difluorophenyl)isoxazolidin-2-yl)-N-(2-methoxy-5-(1-methyl-1H-pyrazol-4-yl)-4-morpholinophenyl)pyrimidin-4-amine] | – |
| < 50 | – | < 50 | 50 to 500 | 50 to 500 | COc1cc(N2CCC(N3CCN(C)CC3)CC2)ccc1Nc1cc(N2OCC[C@@H]2c2ccc(F)cc2F)ncn1 [Example 34, (R)-6-(3-(2,4-difluorophenyl)isoxazolidin-2-yl)-N-(2-methoxy-4-(4-(4-methylpiperazin-1-yl)piperidin-1-yl)phenyl)pyrimidin-4-amine] | GI50 [6]: 50 to 500 nM; GI50 [7]: < 50 nM; IC50 (EGFR (d746-750)): 8 nM; IC50 (EGFR (d746-750/C797A)): 3.5 nM; IC50 (EGFR (d746-750/C797S)): < 0.5 nM; IC50 [8]: 60.5 nM; IC50 (EGFR (D761Y)): < 0.5 nM; IC50 (EGFR (G719C)): 0.5 nM; IC50 (EGFR (G719D)): < 0.5 nM; IC50 (EGFR (G719S)): 2.7 nM; IC50 (EGFR (L718Q)): 49.8 nM; IC50 (EGFR (L747S)): < 0.5 nM; IC50 (EGFR (L792F)): 8.7 nM; IC50 (EGFR (L792F/L858R)): 78.1 nM; IC50 (EGFR (L861Q)): < 0.5 nM; IC50 (ERBB2/HER2): 5.3 nM; IC50 (ERBB4/HER4): 41.7 nM |
